For 3 molecules, IC50 results are on record in ChEMBL document CHEMBL3639041, “Respiratory formulations and compounds for use therein” (2015).

Assay [1] has as its target T1, Mitogen-activated protein kinase 12 (Homo sapiens, UniProt P53778).
T1 sequence (P53778 whole entry): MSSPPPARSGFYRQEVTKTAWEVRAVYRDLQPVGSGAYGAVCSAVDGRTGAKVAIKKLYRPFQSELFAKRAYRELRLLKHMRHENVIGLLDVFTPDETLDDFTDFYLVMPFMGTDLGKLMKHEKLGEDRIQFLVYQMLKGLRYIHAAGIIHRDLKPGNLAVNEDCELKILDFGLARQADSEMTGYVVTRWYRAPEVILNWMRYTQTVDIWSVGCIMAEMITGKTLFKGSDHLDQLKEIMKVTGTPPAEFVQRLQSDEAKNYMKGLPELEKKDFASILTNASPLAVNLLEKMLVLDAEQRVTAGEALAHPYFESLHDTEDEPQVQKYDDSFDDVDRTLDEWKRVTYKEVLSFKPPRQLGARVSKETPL
Description: (§1) Fluorescence Resonance Energy Transfer (FRET) Assay: The enzyme inhibitory activity of test compounds was determined by fluorescence resonance energy transfer (FRET) using synthetic peptides labelled with both donor and acceptor fluorophores (Z-LYTE, Invitrogen). Recombinant, phosphorylated p38 MAPK (MAPK12:Millipore) was diluted in HEPES buffer, mixed with compound at the desired final concentrations and incubated for 2 hr at RT. The FRET peptide (2 uM) and ATP (100 uM) were next added to the enzyme/compound mixture and incubated for 1 hr. Development reagent (protease) was added for 1 hr prior to detection in a fluorescence microplate reader. The site-specific protease only cleaves non-phosphorylated peptide and eliminates the FRET signal. Phosphorylation levels of each reaction were calculated using the ratio of coumarin emission (donor) over fluorescein emission (acceptor) with […].

For assay [2], the target named is Proto-oncogene tyrosine-protein kinase Src (Homo sapiens, UniProt P12931). The description is as §1.
Assay [3] deals with Tyrosine-protein kinase HCK (Homo sapiens, UniProt P08631). The assay is described as §1.

As for `Cc1ccc(-n2nc(C(C)C)cc2NC(=O)Nc2ccc(Oc3ccnc4[nH]c(=O)cnc34)c3ccccc23)cc1`, the half-inhibitory concentration (IC50) (in general, the concentration needed to halve the response being measured) is 39 nM in assay [1], 8 nM in assay [2] and 4 nM in assay [3].
Turning to `CC(C)(C)c1cc(NC(=O)Nc2ccc(Oc3ccnc4[nH]c(=O)cnc34)c3ccccc23)n(-c2ccc(Cl)c(Cl)c2)n1`, the IC50 is 89 nM in assay [1] and 6 nM in assay [2].
As for `Cc1ccc(-n2nc(C(C)(C)C)cc2NC(=O)Nc2ccc(Oc3ccnc4[nH]c(=O)cnc34)c3ccccc23)s1`, the IC50 in assay [1] was 41 nM; in assay [3], 3 nM.
